For 23 molecules, IC50 results are on record in patent publication US20230044787A1, “TRICYCLE DIHYDROIMIDAZOPYRIMIDONE DERIVATIVE, PREPARATION METHOD THEREOF, PHARMACEUTICAL COMPOSITION AND USE THEREOF” (priority 2019, published 2023).

By IC50 is commonly meant the concentration needed to halve the response being measured.

Each structure is given as a SMILES string.

This assay deals with T1, Lp-PLA2 (Homo sapiens, UniProt Q13093).
T1 construct: aliquoted and thawed 40 μL of pooled human plasma was previously added; from tissue; host or cells: pooled human plasma
T1 sequence (Q13093 22-441): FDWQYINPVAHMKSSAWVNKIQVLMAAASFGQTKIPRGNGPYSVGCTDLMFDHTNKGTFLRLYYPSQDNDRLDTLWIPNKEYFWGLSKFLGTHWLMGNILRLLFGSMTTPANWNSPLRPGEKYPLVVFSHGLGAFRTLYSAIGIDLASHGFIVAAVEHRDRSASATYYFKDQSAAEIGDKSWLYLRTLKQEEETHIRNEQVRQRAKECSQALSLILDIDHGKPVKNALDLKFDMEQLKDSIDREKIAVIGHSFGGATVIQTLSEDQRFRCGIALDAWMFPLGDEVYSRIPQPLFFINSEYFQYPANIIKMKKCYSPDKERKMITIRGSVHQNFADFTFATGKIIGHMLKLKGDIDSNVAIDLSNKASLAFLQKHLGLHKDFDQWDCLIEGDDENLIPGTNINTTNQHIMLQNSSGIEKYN
The experiment in a line: Lipoprotein-associated phospholipase A2 (Lp-PLA2) human plasma assay (Thio-PAF assay). Format: biochemical. The note with it: Lp-PLA2 human plasma assay (Thio-PAF), pooled human plasma, 30-min pre-incubation at room temperature.
In the case of `O=c1nc(OCc2cc(F)c(Oc3ccnc(C(F)(F)F)c3)c(F)c2)cc2n1C[C@@]13CO[C@@H](CN21)C3` [Example 26, (3R,11aS)-7-((3,5-difluoro-4-((2-(trifluoromethyl)pyridin-4-yl)oxy)benzyl)oxy)-3,4-dihydro-1H,9H,11H-3,11a-methanopyrimido[6′,1′:2,3] imidazo[5,1-c][1,4]oxazin-9-one], the IC50 was 5.5 nM.
For `O=c1nc(OCc2cc(F)c(Oc3ccc(F)cc3)c(F)c2)cc2n1C[C@]13CO[C@H](CN21)C3` [Example 147], the 50% inhibitory concentration (IC50) is 6.5 nM.
As for `O=c1nc(OCc2cc(F)c(Oc3cnc(C(F)(F)F)nc3)c(F)c2)cc2n1CC13CC(CN21)C3` [Example 39, 3-((3,5-difluoro-4-((2-(trifluoromethyl)pyrimidin-5-yl)oxy)benzyl)oxy)-7,8-dihydro-1H,6H,9H-7,8a-methanopyrrolo[1′,2′:3,4] imidazo[1,2-c]pyrimidin-1-one], the IC50 is 13.8 nM.
Turning to `O=c1nc(OCc2ccc(Oc3ccnc(C(F)(F)F)c3)cc2)cc2n1CC13CC(CN21)C3` [Example 109, 3-((4-((2-(trifluoromethyl)pyridin-4-yl)oxy)benzyl)oxy)-7,8-dihydro-1H,6H,9H-7,8a-methanopyrrolo[1′,2′:3,4] imidazo[1,2-c]pyrimidin-1-one], the IC50 is 14 nM.
`O=c1nc(OCc2ccc(Oc3ccc(Cl)c(C(F)(F)F)c3)c(F)c2)cc2n1CC13CC(CN21)C3` [Example 125, 3-((3-fluoro-4-(4-chloro-3-(trifluoromethyl)phenoxy)benzyl)oxy)-7,8-dihydro-1H,6H,9H-7,8a-methanopyrrolo[1′,2′:3,4] imidazo[1,2-c]pyrimidin-1-one]: the IC50 worked out at 3 nM.
Under `N#Cc1cc(F)cc(COc2cc3n(c(=O)n2)CC24CC(F)(CN32)C4)c1` [Example 159] stands 128 nM.
Take `O=c1nc(OCc2cc(F)c(Oc3ccc(Cl)c(F)c3)c(F)c2)cc2n1C[C@]13CO[C@H](CN21)C3` [Example 143]: the concentration for half-maximal inhibition (IC50) came to 2.5 nM.
The same measure for `O=c1nc(OCCc2cc(F)c(Oc3ccnc(C(F)(F)F)c3)c(F)c2)cc2n1C[C@]13CO[C@H](CN21)C3` [Example 99, (3S,11aR)-7-(3,5-difluoro-4-((2-(trifluoromethyl)pyridin-4-yl)oxy)phenethoxy)-3,4-dihydro-1H,9H,11H-3,11a-methanopyrimido[6′-,1′:2,3] imidazo[5,1-c][1,4]oxazin-9-one]: 5.6 nM; for `O=c1nc(OCCc2ccc(Oc3cccc(C(F)(F)F)c3)c(F)c2)cc2n1C[C@]13CO[C@H](CN21)C3` [Example 181, (3S,11aR)-7-(3-fluoro-4-(3-(trifluoromethyl)phenoxy)phenethoxy)-3,4-dihydro-1H,9H, 11H-3,11a-methanopyrimido[6′,1′:2,3]imidazo [5,1-c][1,4]oxazin-9-one]: 6.7 nM; for `Cn1cc(Oc2c(F)cc(COc3cc4n(c(=O)n3)CC35CCC(CC3)N45)cc2F)cn1` [Example 48, 3-((3,5-difluoro-4-((1-methyl-1H-pyrazol-4-yl)oxy)benzyl)oxy)-7,8-dihydro-1H,6H,9H-6,8a-ethanopyrrolo[1′,2′:3,4] imidazo[1,2-c]pyrimidin-1-one]: 62.8 nM.
The same measure for `N#Cc1cc(COc2cc3n(c(=O)n2)C[C@]24CO[C@H](CN32)C4)ccc1Oc1ccc(Cl)c(F)c1` [Example 20]: 6.8 nM.
Under `N#Cc1cc(COc2cc3n(c(=O)n2)CC24CCC(CC2)N34)ccc1Oc1cccc(C(F)(F)F)c1` [Example 2, 5-(((1-Oxo-7,8-dihydro-1H,6H,9H-6,8a-ethanopyrrolo[1′,2′:3,4]imidazo[1,2-c]pyrimidin-3-yl)oxy)methyl)-2-(3-(trifluoromethyl)phenoxy)benzonitrile] stands 2.6 nM; under `CC12CCCCN1c1cc(OCc3ccc(F)c(F)c3)nc(=O)n1C2` (centres unmarked) [Example 74, 3-((3,4-difluorobenzyl)oxy)-9a-methyl-6,7,8,9,9a,10-hexahydro-1H-pyrido [1′,2′:3,4]imidazo[1,2-c]pyrimidin-1-one], 22.3 nM.
As to `O=c1nc(OCc2ccc(Oc3ccnc(C(F)F)c3)cc2)cc2n1CC13CC(CN21)C3` [Example 161], the IC50 was 18.1 nM.
The same measure for `Cn1cc(Oc2c(F)cc(COc3cc4n(c(=O)n3)CC35CC(CN43)C5)cc2F)cn1` [Example 94, 3-((3,5-difluoro-4-((1-methyl-1H-pyrazol-4-yl)oxy)benzyl)oxy)-7,8-dihydro-1H,6H,9H-7,8a-methanopyrrolo[1′,2′:3,4] imidazo[1,2-c]pyrimidin-1-one]: 92.7 nM; for `O=c1nc(OCc2ccc(Oc3ccnc(Cl)c3)c(F)c2)cc2n1CC13CC(CN21)C3` [Example 155]: 3.7 nM.
Turning to `O=c1nc(OCCc2ccc(Oc3ccc(Cl)c(C(F)(F)F)c3)cc2)cc2n1C[C@]13CO[C@H](CN21)C3` [Example 23, (3S,11aR)-7-(4-(4-chloro-3-(trifluoromethyl)phenoxy)phenethoxy)-3,4-dihydro-1H,9H,11H-3,11a-methanopyrimido[6′,1′:2,3] imidazo[5,1-c][1,4]oxazin-9-one], the IC50 was 5 nM.
The same measure for `Cc1cc(Oc2ccc(COc3cc4n(c(=O)n3)CC35CC(CN43)C5)cc2F)ccn1` [Example 119, 3-((3-fluoro-4-((2-methyl-pyridin-4-yl)oxy)benzyl)oxy)-7,8-dihydro-1H,6H,9H-7,8a-methanopyrrolo[1′,2′:3,4] imidazo[1,2-c]pyrimidin-1-one]: 8.2 nM; for `CC12CCCCN1c1cc(OCCc3ccc(Oc4ccc(Cl)c(C(F)(F)F)c4)cc3)nc(=O)n1C2` (centres unmarked) [Example 73, 3-(4-(4-chloro-3-(trifluoromethyl)phenoxy)phenethoxy)-9a-methyl-6,7,8,9,9a,10-hexahydro-1H-pyrido[1′,2′:3,4]imidazo [1,2-c]pyrimidin-1-one]: 4.8 nM.
As to `Cc1c(OCc2cc(F)c(Oc3ccnc(C(F)(F)F)c3)c(F)c2)nc(=O)n2c1N1C[C@@H]3C[C@]1(CO3)C2` [Example 92, (3S,11aR)-7-((3,5-difluoro-4-((2-(trifluoromethyl)pyridin-4-yl)oxy)benzyl)oxy)-6-methyl-3,4-dihydro-1H,9H,11H-3,11a-methanopyrimido[6′,1′:2,3] imidazo[5,1-c][1,4]oxazin-9-one], the IC50 worked out at 5.6 nM.
The same measure for `CC12CCCCN1c1cc(OCc3ccc(Oc4cccc(C(F)(F)F)c4)c(C#N)c3)nc(=O)n1C2` (centres unmarked) [Example 71, 5-(((-9a-methyl-1-oxo-6,7,8,9,9a,10-hexahydro-1H-pyrido[1′,2′:3,4]imidazo [1,2-c]pyrimidin-3-yl)oxy)methyl)-2-(3-(trifluoromethyl)phenoxy) benzonitrile]: 7.9 nM; for `CC12CCCN1c1cc(OCc3ccc(Oc4cccc(C(F)(F)F)c4)c(C#N)c3)nc(=O)n1C2` (centres unmarked) [Example 59, 5-(((8a-methyl-1-oxo-7,8,8a,9-tetrahydro-1H,6H-pyrrolo[1′,2′:3,4]imidazo [1,2-c]pyrimidin-3-yl)oxy)methyl)-2-(3-(trifluoromethyl)phenoxy) benzonitrile]: 2.4 nM; for `Cn1cc(Oc2c(F)cc(COc3cc4n(c(=O)n3)C[C@]35CO[C@H](CN43)C5)cc2F)cn1` [Example 11, (3S,11aR)-7-((3,5-difluoro-4-((1-methyl-1H-pyrazol-4-yl)oxy)benzyl)oxy)-3,4-dihydro-1H,9H,11H-3,11a-methanopyrimido[6′,1′:2,3] imidazo[5,1-c][1,4]oxazin-9-one]: 10.8 nM.
